Assay results as given in patent US8242145B2, “Cyclic diaryl ether compounds as antagonists of prostaglandin D2 receptors” (Panmira Pharmaceuticals, LLC, priority 2008, dated 2012).

Columns and labels:
[1] = biological target: T1, human DP1 receptor (Homo sapiens, UniProt Q13258); assay: DP1 radioligand binding assay using [3H]BWA868C; settings: hDP1 binding
T1 construct: tissue Biological Specialty Corporation; host or cells: human platelets, membranes
T1 sequence (Q13258 1-359): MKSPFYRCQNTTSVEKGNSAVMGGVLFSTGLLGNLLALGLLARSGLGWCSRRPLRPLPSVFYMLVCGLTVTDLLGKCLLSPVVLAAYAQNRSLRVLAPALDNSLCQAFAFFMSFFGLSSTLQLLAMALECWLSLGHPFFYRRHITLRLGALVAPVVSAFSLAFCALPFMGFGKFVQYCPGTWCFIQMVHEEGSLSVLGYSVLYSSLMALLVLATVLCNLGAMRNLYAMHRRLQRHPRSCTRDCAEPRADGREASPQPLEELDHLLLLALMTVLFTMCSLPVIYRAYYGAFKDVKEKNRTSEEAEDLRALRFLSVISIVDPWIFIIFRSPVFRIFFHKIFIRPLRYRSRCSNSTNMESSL
Method: The ability of a compound to bind to the human DP1 receptor was evaluated via a radioligand membrane binding assay using the DP1 selective synthetic ligand [^3H]BW A868C. Packed human platelets (Biological Specialty Corporation), were resuspended in 6 volumes of Hepes/HBSS buffer (10 mM Hepes, 1 mM DTT in Hanks Balanced Salt Solution (HBSS)), lysed and centrifuged at 75,000×g to pellet the membranes. Membranes were resuspended in Hepes/HBSS buffer to approximately 12 mg protein/ml. Membranes (20 μg protein/well) are incubated in 96-well plates with 2 nM [^3H]BWA868C and test compound in Assay Buffer (50 mM Hepes, 10 mM MnCl2, 1 mM EDTA, plus or minus 0.2% human serum albumin, pH 7.4) for 60 minutes at room temperature. The reactions are terminated by rapid filtration through Whatman GF/C glass fibre filter plates. The filter plates were pre-soaked in 0.33% polethylenimine for 30 minutes at room temperature then washed in Wash Buffer (50 mM Hepes, 0.5 M NaCl pH 7.4) prior to harvesting. After harvesting, the filter plates are washed 3 times with 1 ml cold Wash Buffer then dried. Scintillant is then added to the plates and the radioactivity retained on the filters is determined on a Packard TopCount (Perkin Elmer). Specific binding is determined as total radioactive binding minus non-specific binding in the presence of 10 μM BW A868C. IC50s were determined using GraphPad prism analysis of drug titration curves.

[2] = biological target: T2, human DP2 receptor (Homo sapiens, UniProt Q9Y5Y4); assay: DP2/CRTH2 radioligand binding assay using [3H]PGD2; settings: hDP2 (CRTH2) binding assay
T2 construct: expressed in transfected cells
T2 sequence (Q9Y5Y4 1-395): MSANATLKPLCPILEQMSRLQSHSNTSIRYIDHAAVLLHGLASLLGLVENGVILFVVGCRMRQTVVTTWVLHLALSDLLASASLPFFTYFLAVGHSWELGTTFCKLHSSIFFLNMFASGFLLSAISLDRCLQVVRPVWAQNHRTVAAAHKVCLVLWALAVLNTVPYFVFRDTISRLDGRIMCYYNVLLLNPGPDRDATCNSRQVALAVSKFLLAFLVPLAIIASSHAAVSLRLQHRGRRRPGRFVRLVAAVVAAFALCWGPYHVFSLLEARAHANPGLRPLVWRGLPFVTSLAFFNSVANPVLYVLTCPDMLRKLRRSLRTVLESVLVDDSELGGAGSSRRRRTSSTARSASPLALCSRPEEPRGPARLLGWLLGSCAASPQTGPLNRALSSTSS
Method: The ability of a compound to bind to the human DP2 receptor is assessed via a radioligand binding assay using [^3H]PGD2. HEK293 cells stably expressing recombinant human DP2 are resuspended in 10 mM Hepes, 7.4 containing 1 mM DTT, lysed and centrifuged at 75,000×g to pellet the membranes. The membranes are resuspended in 10 mM Hepes, 7.4 containing 1 mM DTT and 10% glycerol to approximately 5 mg protein/ml. Membranes (2-10 μg protein/well) are incubated in 96-well plates with 1 nM [^3H]PGD2 and test compound in Assay Buffer (50 mM Hepes, 10 mM MnCl2, 1 mM EDTA, plus or minus 0.2% human serum albumin, pH 7.4) for 60 minutes at room temperature. The reactions are terminated by rapid filtration through Whatman GF/C glass fibre filter plates. The filter plates were pre-soaked in 0.33% polythylenimine for 30 minutes at room temperature then washed in Wash Buffer (50 mM Hepes, 0.5 M NaCl pH 7.4) prior to harvesting. After harvesting, the filter plates are washed 3 times with 1 ml cold Wash Buffer then dried. Scintillant is then added to the plates and the radioactivity retained on the filters is determined on a Packard TopCount (Perkin Elmer). Specific binding is determined as total radioactive binding minus non-specific binding in the presence of 10 μM PGD2. IC50s were determined using GraphPad prism analysis of drug titration curves.

Row | IC50 [1] [nM] | IC50 [2] [nM] | SMILES
1 | > 1000 | < 300 | COc1ccc(CC(=O)O)cc1Oc1ccc(NC(=O)c2cc(C(F)(F)F)cc(C(F)(F)F)c2)cc1CN1CCOC1=O [Compound 1-97, {3-[4-(3,5-Bis-trifluoromethyl-benzoylamino)-2-(2-oxo-oxazolidin-3-ylmethyl)-phenoxy]-4-methoxy-phenyl}-acetic acid]
2 | > 1000 | < 300 | COc1ccc(CC(=O)O)cc1Oc1ccc(-c2cnn(C)c2)cc1CN1CCOC1=O [Compound 1-96, {4-Methoxy-3-[4-(1-methyl-1H-pyrazol-4-yl)-2-(2-oxo-oxazolidin-3-ylmethyl)-phenoxy]-phenyl}-acetic acid]
3 | > 1000 | < 300 | COc1ccc(CC(=O)O)cc1Oc1ccc(NC(=O)c2cc(C(F)(F)F)ccc2F)cc1CN1CCOC1=O [Compound 1-98, {3-[4-(2-Fluoro-5-trifluoromethyl-benzoylamino)-2-(2-oxo-oxazolidin-3-ylmethyl)-phenoxy]-4-methoxy-phenyl}-acetic acid]
4 | > 1000 | < 300 | COc1ccc(CC(=O)O)cc1Oc1ccc(NS(=O)(=O)c2ccc(Cl)cc2)cc1CN1CCOC1=O [Compound 1-99, {3-[4-(4-Chloro-benzenesulfonylamino)-2-(2-oxo-oxazolidin-3-ylmethyl)-phenoxy]-4-methoxy-phenyl}-acetic acid]
5 |  | < 300 | COc1ccc(CC(=O)O)cc1Oc1ccc(NC(=O)Cc2ccccc2)cc1CN1CCOC1=O [Compound 1-101, {4-Methoxy-3-[2-(2-oxo-oxazolidin-3-ylmethyl)-4-phenylacetylamino-phenoxy]-phenyl}-acetic acid]
6 | > 1000 | > 1000 | O=C(O)Cc1cccc(Oc2ccc(Br)cc2CN2CCCC2=O)c1 [Compound 3-1, {3-[4-Bromo-2-(2-oxo-pyrrolidin-1-ylmethyl)-phenoxy]-phenyl}-acetic acid]
7 |  | < 300 | COc1ccc(CC(=O)O)cc1Oc1ccc(NC(=O)NCc2ccccc2)cc1CN1CCOC1=O [Compound 1-108, {3-[4-(3-Benzyl-ureido)-2-(2-oxo-oxazolidin-3-ylmethyl)-phenoxy]-4-methoxy-phenyl}-acetic acid]
8 | < 300 | < 300 | C[C@H]1[C@@H](c2ccccc2)OC(=O)N1Cc1cc(-c2cnn(C)c2)ccc1Oc1cccc(CC(=O)O)c1 [Compound 1-21, {3-[2-((4S,5R)-4-Methyl-2-oxo-5-phenyl-oxazolidin-3-ylmethyl)-4-(1-methyl-1H-pyrazol-4-yl)-phenoxy]-phenyl}-acetic acid]
9 |  | > 1000 | O=C(O)Cc1cc(Oc2ccc(C(F)(F)F)cc2CN2CCOC2=O)ccc1Br [Compound 1-12, {2-Bromo-5-[2-(2-oxo-oxazolidin-3-ylmethyl)-4-trifluoromethyl-phenoxy]-phenyl}-acetic acid]
10 | > 1000 | > 1000 | O=C(O)Cc1cccc(Oc2ccccc2CN2CCOC2=O)c1 [Compound 1-1, {3-[2-(2-Oxo-oxazolidin-3-ylmethyl)-phenoxy]-phenyl}-acetic acid]
11 | < 300 | < 300 | C[C@H]1[C@@H](c2ccccc2)OC(=O)N1Cc1cc(-c2ccc(N)cn2)ccc1Oc1cccc(CC(=O)O)c1 [Compound 1-69, {3-[4-(5-Amino-pyridin-2-yl)-2-((4S,5R)-4-methyl-2-oxo-5-phenyl-oxazolidin-3-ylmethyl)-phenoxy]-phenyl}-acetic acid]
12 |  | < 300 | COc1ccc(CC(=O)O)cc1Oc1ccc(NC(=O)C(C)C)cc1CN1CCOC1=O [Compound 1-103, {3-[4-Isobutyrylamino-2-(2-oxo-oxazolidin-3-ylmethyl)-phenoxy]-4-methoxy-phenyl}-acetic acid]
13 | 300 to 1000 | 300 to 1000 | C[C@H]1[C@@H](c2ccccc2)OC(=O)N1Cc1cc(-c2nccn2C)ccc1Oc1cccc(CC(=O)O)c1 [Compound 1-73, {3-[4-(1-Methyl-1H-imidazol-2-yl)-2-((4S,5R)-4-methyl-2-oxo-5-phenyl-oxazolidin-3-ylmethyl)-phenoxy]-phenyl}-acetic acid]
14 | > 1000 | < 300 | Cc1nc(-c2ccc(Oc3cccc(CC(=O)O)c3)c(CN3C(=O)O[C@H](c4ccccc4)[C@@H]3C)c2)cn1C [Compound 1-70, {3-[4-(1,2-Dimethyl-1H-imidazol-4-yl)-2-((4S,5R)-4-methyl-2-oxo-5-phenyl-oxazolidin-3-ylmethyl)-phenoxy]-phenyl}-acetic acid]
15 | > 1000 | > 1000 | COc1ccc(CC(=O)O)cc1Oc1ccc(N2CCOCC2)cc1CN1CCOC1=O [Compound 1-90, {4-Methoxy-3-[4-morpholin-4-yl-2-(2-oxo-oxazolidin-3-ylmethyl)-phenoxy]-phenyl}-acetic acid]
16 | > 1000 | > 1000 | CC(C)(C(=O)O)c1cccc(Oc2ccc(C(F)(F)F)cc2CN2CCOC2=O)c1 [Compound 1-11, 2-Methyl-2-{3-[2-(2-oxo-oxazolidin-3-ylmethyl)-4-trifluoromethyl-phenoxy]-phenyl}-propionic acid]
17 | > 1000 | < 300 | COc1ccc(CC(=O)O)cc1Oc1ccc(-c2cccc(S(C)(=O)=O)c2)cc1CN1CCOC1=O [Compound 1-93, {3-[3′-Methanesulfonyl-3-(2-oxo-oxazolidin-3-ylmethyl)-biphenyl-4-yloxy]-4-methoxy-phenyl}-acetic acid]
18 |  | < 300 | COc1ccc(CC(=O)O)cc1Oc1ccc(NC(=O)c2ccncc2)cc1CN1CCOC1=O [Compound 1-104, (4-Methoxy-3-{2-(2-oxo-oxazolidin-3-ylmethyl)-4-[(pyridine-4-carbonyl)-amino]-phenoxy}-phenyl)-acetic acid]
19 |  | < 300 | COc1ccc(CC(=O)O)cc1Oc1ccc(NC(=O)C2CCCCC2)cc1CN1CCOC1=O [Compound 1-102, {3-[4-(Cyclohexanecarbonyl-amino)-2-(2-oxo-oxazolidin-3-ylmethyl)-phenoxy]-4-methoxy-phenyl}-acetic acid]
20 |  | 300 to 1000 | COCC(=O)Nc1ccc(Oc2cc(CC(=O)O)ccc2OC)c(CN2CCOC2=O)c1 [Compound 1-107, {4-Methoxy-3-[4-(2-methoxy-acetylamino)-2-(2-oxo-oxazolidin-3-ylmethyl)-phenoxy]-phenyl}-acetic acid]
21 |  | < 300 | COc1ccc(CC(=O)O)cc1Oc1ccc(NC(=O)C(C)(C)C)cc1CN1CCOC1=O [Compound 1-100, {3-[4-(2,2-Dimethyl-propionylamino)-2-(2-oxo-oxazolidin-3-ylmethyl)-phenoxy]-4-methoxy-phenyl}-acetic acid]
22 |  | > 1000 | COc1ccc(CC(=O)O)cc1Oc1ccc(NC(=O)c2cccnc2)cc1CN1CCOC1=O [Compound 1-105, (4-Methoxy-3-{2-(2-oxo-oxazolidin-3-ylmethyl)-4-[(pyridine-3-carbonyl)-amino]-phenoxy}-phenyl)-acetic acid]
23 |  | < 300 | COc1ccc(CC(=O)O)cc1Oc1ccc(NC(=O)COc2ccccc2)cc1CN1CCOC1=O [Compound 1-106, {4-Methoxy-3-[2-(2-oxo-oxazolidin-3-ylmethyl)-4-(2-phenoxy-acetylamino)-phenoxy]-phenyl}-acetic acid]
